This is an account of results in PubChem BioAssay (NCI).

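Five concentrations, 48 hours, 96-well plates. GI50 is the concentration that inhibits growth by half. TGI: total growth inhibition.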

Test systems include HOP-62 NSCLC; HOP-92 NSCLC; MCF7 breast; A549 NSCLC; ACHN renal; T-47D breast; RPMI-8226 leukemia; OVCAR-4 ovarian; SF-295 CNS; PC-3 prostate.
Experiment in all cases: NCI tumour cell line growth inhibition, 48 h

As for `COc1ccc(C2=C(c3cc(OC)c(OC)c(OC)c3)C(=O)CC2)cc1`, the GI50 is 0.355 µM with HOP-62 NSCLC; 1.68 µM in the assay on HOP-92 NSCLC; 0.0585 µM in the assay with MCF7 breast; 0.193 µM in the assay with A549 NSCLC; 1.8 µM in the assay on ACHN renal; 24.6 µM with T-47D breast. In addition, the GI50 is 0.255 µM in the assay with RPMI-8226 leukemia, 0.689 µM in the assay on OVCAR-4 ovarian, 0.0548 µM in the assay on SF-295 CNS and 0.203 µM with PC-3 prostate. In addition, the TGI in the assay with HOP-62 NSCLC was more than 100 µM; in the assay on HOP-92 NSCLC, 54.1 µM; in the assay with MCF7 breast it was more than 100 µM; in the assay with A549 NSCLC, more than 100 µM; in the assay on ACHN renal, more than 100 µM; in the assay on T-47D breast it was more than 100 µM. The TGI in the assay with RPMI-8226 leukemia is 7 µM; with OVCAR-4 ovarian it was more than 100 µM; in the assay with SF-295 CNS, more than 20.5 µM; in the assay with PC-3 prostate it was more than 100 µM.
For the compound `CCCN(CCC)CCCNC(=O)c1cc2c(-c3ccc(OC)c(OC)c3)nn(C)c2s1`, the GI50 was 37.2 µM in the assay on HOP-62 NSCLC; 6.15 µM in the assay on HOP-92 NSCLC; 18.2 µM with MCF7 breast; 36.5 µM in the assay on A549 NSCLC; 17.2 µM in the assay on ACHN renal; 27.5 µM in the assay on T-47D breast. For the same compound, the GI50 with RPMI-8226 leukemia is 14.6 µM; in the assay on OVCAR-4 ovarian, 23.5 µM; with SF-295 CNS, 21.6 µM; with PC-3 prostate, 33.8 µM. Besides, the TGI in the assay on HOP-62 NSCLC was more than 100 µM; with HOP-92 NSCLC it was 46.9 µM; in the assay on MCF7 breast, 42.1 µM; with A549 NSCLC, more than 100 µM; with ACHN renal it was 39.5 µM; in the assay with T-47D breast, 98.7 µM. Moreover, the TGI is 42.2 µM with RPMI-8226 leukemia, more than 100 µM in the assay with OVCAR-4 ovarian, 49.4 µM in the assay with SF-295 CNS and more than 100 µM in the assay with PC-3 prostate.
On to `C[C@H]1CC[C@@H]2[C@@H](C)[C@H]3[C@H](C[C@H]4[C@@H]5CC=C6C[C@@H](O)CC[C@]6(C)[C@H]5C[C@H](O)[C@]34C)N2C1`, for which the TGI in the assay on HOP-62 NSCLC, in the assay with HOP-92 NSCLC, in the assay on MCF7 breast, in the assay on A549 NSCLC, in the assay with ACHN renal and with T-47D breast was more than 100 µM throughout. The TGI in the assay on RPMI-8226 leukemia, in the assay with OVCAR-4 ovarian, in the assay on SF-295 CNS and in the assay with PC-3 prostate was more than 100 µM each time.
Regarding `C#COc1cccc(Nc2ncnc3ncc(NC(=O)CCl)cc23)c1`, the GI50 in the assay on HOP-62 NSCLC is more than 62.5 µM; with HOP-92 NSCLC it was more than 62.5 µM; in the assay with MCF7 breast it was more than 16.6 µM; with A549 NSCLC it was more than 13.8 µM; with T-47D breast it was more than 62.5 µM; in the assay with RPMI-8226 leukemia it was more than 19.8 µM. Moreover, the GI50 in the assay with OVCAR-4 ovarian was more than 62.5 µM; in the assay with SF-295 CNS, more than 52.9 µM; in the assay with PC-3 prostate it was more than 36.7 µM. In addition, the TGI in the assay with HOP-62 NSCLC, in the assay with HOP-92 NSCLC, with MCF7 breast, with A549 NSCLC, in the assay on ACHN renal and in the assay on T-47D breast was more than 62.5 µM in each case. The TGI in the assay on RPMI-8226 leukemia, with OVCAR-4 ovarian, in the assay with SF-295 CNS and in the assay with PC-3 prostate was more than 62.5 µM each time.
On to `Clc1ccc(-c2nn3ncccc3c2-c2ccnc(Nc3ccccc3)n2)cc1`, for which the GI50 in the assay on HOP-62 NSCLC was more than 21.4 µM; with HOP-92 NSCLC it was 2.89 µM; in the assay with MCF7 breast, 7.17 µM; with A549 NSCLC, 11.3 µM; in the assay on ACHN renal, 3.69 µM; in the assay with T-47D breast, 10.2 µM. The GI50 was 11.7 µM in the assay with RPMI-8226 leukemia, 9.6 µM in the assay with OVCAR-4 ovarian, 9.67 µM with SF-295 CNS and 7.3 µM in the assay on PC-3 prostate. The TGI with HOP-62 NSCLC is more than 25 µM; in the assay with HOP-92 NSCLC it was more than 21.6 µM; in the assay with MCF7 breast, more than 25 µM; in the assay with A549 NSCLC it was more than 25 µM; with ACHN renal, more than 25 µM; with T-47D breast, more than 25 µM. Further, the TGI with RPMI-8226 leukemia, with OVCAR-4 ovarian, in the assay on SF-295 CNS and in the assay with PC-3 prostate was more than 25 µM throughout.
Take `COc1cccc(C2C3=C(COC3=O)N(CCO)c3cc4c(cc32)OCCO4)c1` (centres undefined): the GI50 was 0.287 µM in the assay on HOP-62 NSCLC; 0.0348 µM in the assay with HOP-92 NSCLC; 0.0396 µM with MCF7 breast; 0.207 µM with A549 NSCLC; 0.769 µM with ACHN renal; 0.239 µM with T-47D breast. In addition, the GI50 is 0.0564 µM in the assay with RPMI-8226 leukemia, 0.472 µM in the assay with OVCAR-4 ovarian, 0.0389 µM in the assay with SF-295 CNS and 0.12 µM in the assay with PC-3 prostate. In addition, the TGI with HOP-62 NSCLC was more than 50 µM; in the assay with HOP-92 NSCLC, 2.89 µM; in the assay with MCF7 breast, more than 50 µM; in the assay with A549 NSCLC it was more than 50 µM; in the assay on ACHN renal, more than 50 µM; in the assay with T-47D breast, more than 50 µM. For the same compound, the TGI in the assay with OVCAR-4 ovarian and with PC-3 prostate was more than 50 µM throughout.
Consider `COc1cc([C@@H]2c3cc4c(cc3[C@@H](O[C@@H]3O[C@@H]5CO[C@@H](c6cccs6)O[C@H]5[C@H](O)[C@H]3O)[C@H]3COC(=O)[C@H]23)OCO4)cc(OC)c1O`, for which the GI50 is 0.197 µM in the assay on HOP-62 NSCLC; 0.0491 µM in the assay on MCF7 breast; 0.0969 µM in the assay with A549 NSCLC; 0.207 µM in the assay with T-47D breast; 2.83 µM in the assay with OVCAR-4 ovarian; 0.186 µM in the assay on SF-295 CNS. The GI50 with PC-3 prostate is 1.69 µM. In addition, the TGI was 2.34 µM in the assay with HOP-62 NSCLC; 1.99 µM in the assay with HOP-92 NSCLC; more than 100 µM in the assay with MCF7 breast; 2.56 µM with A549 NSCLC; 3.69 µM in the assay on ACHN renal; 12.3 µM in the assay with T-47D breast. Besides, the TGI in the assay on RPMI-8226 leukemia is 6.48 µM; in the assay on OVCAR-4 ovarian, 37.4 µM; in the assay with SF-295 CNS, 8.21 µM; in the assay on PC-3 prostate, more than 69.7 µM.
As to `O=C1C(Cl)=C(Nc2cccc(O)c2)C(=O)N1c1ccc(Cl)c(Cl)c1`, the GI50 in the assay on HOP-62 NSCLC was 16.4 µM; in the assay on HOP-92 NSCLC, 21.8 µM; in the assay on MCF7 breast, 25.1 µM; in the assay with A549 NSCLC, 23.9 µM; in the assay with ACHN renal, 17.3 µM; in the assay on T-47D breast, 41 µM. The GI50 was 15.9 µM in the assay on RPMI-8226 leukemia, 34.4 µM in the assay with OVCAR-4 ovarian, 25.9 µM in the assay on SF-295 CNS and 19 µM in the assay with PC-3 prostate. Also, the TGI with HOP-62 NSCLC is 32.5 µM; in the assay on HOP-92 NSCLC, 70.6 µM; with MCF7 breast it was 85.1 µM; with A549 NSCLC it was 60.6 µM; with ACHN renal, 33.3 µM; with T-47D breast, more than 100 µM. Moreover, the TGI is 57.7 µM in the assay with RPMI-8226 leukemia, more than 100 µM with OVCAR-4 ovarian, 83.5 µM in the assay with SF-295 CNS and 49.6 µM in the assay with PC-3 prostate.
